Measurements taken from PMC10250385, “Pregnane X receptor agonist nomilin extends lifespan and healthspan in preclinical models through detoxification functions” (Nature Communications, 2023).

Columns and labels:
[1] = molecular target: T1, human pregnane X receptor (hPXR) (Homo sapiens, UniProt O75469); assay: TR-FRET competitive binding assay (LanthaScreen PXR); also activates hPXR in reporter assay; design: gene NR1I2; hPXR-LBD-GST
T1 sequence (O75469 130-434 limits assumed): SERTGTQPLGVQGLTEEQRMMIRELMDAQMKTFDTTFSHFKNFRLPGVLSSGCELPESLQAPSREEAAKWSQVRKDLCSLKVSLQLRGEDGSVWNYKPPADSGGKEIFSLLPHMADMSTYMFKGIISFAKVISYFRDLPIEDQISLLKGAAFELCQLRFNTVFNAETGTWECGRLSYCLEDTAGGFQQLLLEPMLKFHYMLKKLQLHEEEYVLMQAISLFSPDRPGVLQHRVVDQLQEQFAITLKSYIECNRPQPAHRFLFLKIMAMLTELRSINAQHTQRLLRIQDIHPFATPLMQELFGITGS

[2] = molecular target: T1, human pregnane X receptor (hPXR); assay: biochemical; design: gene NR1I2
[3] = molecular target: the molecule itself; assay: crystal structure; hPXR^LBD-NCOA1^676–700 co-crystallised with nomilin (1 mM), sitting drop vapour diffusion at 4 °C, 10% (v/v) 2-propanol, 100 mM imidazole/HCl pH 8.0; 2.1 Å; the homodimer is also said to form in the purification (SEC in 150 mM NaCl, 20 mM HEPES, 1 mM TCEP)
[4] = molecular target: T2, ligand-binding domain (LBD) of human pregnane X receptor (hPXR), residues 130–432 (human, UniProt O75469-1 130-432); assay: as above; settings: both partners purified
T2 construct: In the crystal it stood on one chain with the NCOA1 peptide, joined by the spacer SSSGGT: see m1; also called hPXR LBD; hPXR^LBD; source: Sf9 (recombinant baculovirus), purified, as part of the fusion protein m1
T2 sequence (looked up): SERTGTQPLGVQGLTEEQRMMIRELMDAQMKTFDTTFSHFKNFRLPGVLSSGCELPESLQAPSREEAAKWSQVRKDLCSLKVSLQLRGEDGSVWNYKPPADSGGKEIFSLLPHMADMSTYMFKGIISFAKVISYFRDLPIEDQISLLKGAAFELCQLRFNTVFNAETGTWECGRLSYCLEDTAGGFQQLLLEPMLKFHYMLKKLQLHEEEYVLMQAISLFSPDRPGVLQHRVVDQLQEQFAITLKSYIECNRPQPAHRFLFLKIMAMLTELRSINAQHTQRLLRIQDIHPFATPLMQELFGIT

Work on `CC1(C)OC(=O)C[C@H](O)[C@]2(C)[C@H]3CC[C@@]4(C)[C@H](c5ccoc5)OC(=O)[C@H]5O[C@]54[C@]3(C)C(=O)C[C@@H]12` [deacetylnomilin] yielded an IC50 [1] of 22.7 µM.

Molecule `CC(=O)O[C@H]1CC(=O)OC(C)(C)[C@@H]2CC(=O)[C@]3(C)[C@H](CC[C@@]4(C)[C@H](c5ccoc5)OC(=O)[C@H]5O[C@]543)[C@@]12C` [nomilin] has an IC50 [2] of 5.8 µM.

B1: hPXR^LBD-NCOA1^676–700 fusion protein (other)
chain: SERTGTQPLGVQGLTEEQRMMIRELMDAQMKTFDTTFSHFKNFRLPGVLSSGCELPESLQAPSREEAAKWSQVRKDLCSLKVSLQLRGEDGSVWNYKPPADSGGKEIFSLLPHMADMSTYMFKGIISFAKVISYFRDLPIEDQISLLKGAAFELCQLRFNTVFNAETGTWECGRLSYCLEDTAGGFQQLLLEPMLKFHYMLKKLQLHEEEYVLMQAISLFSPDRPGVLQHRVVDQLQEQFAITLKSYIECNRPQPAHRFLFLKIMAMLTELRSINAQHTQRLLRIQDIHPFATPLMQELFGITSSSGGTCPSSHSSLTERHKILHRLLQEGSPS
notes: spacer -Ser-Ser-Ser-Gly-Gly-Thr- between the hPXR LBD and the NCOA1 peptide; A TEV protease recognition site stood between the NCOA1 peptide and the His6 tag; Crystallised with nomilin in the ligand pocket; also called hPXR chimera; source: Sf9 (recombinant baculovirus), purified (Talon IMAC, TEV cleavage, second IMAC, SEC on Superdex 200 Increase); not shown: His6, C-terminal, cleaved
For B1, the “stoichiometry N” value [3] was 2.

B2: nuclear receptor coactivator 1 residues 676–700 (NCOA1^676–700) (peptide, UniProt Q15788-1 676-700, looked up)
peptide: CPSSHSSLTERHKILHRLLQEGSPS
notes: In the crystal it stood on one chain with the hPXR LBD, joined to its C-terminus by the spacer SSSGGT: see m1; source: Sf9 (recombinant baculovirus), purified, as part of the fusion protein m1; not shown: His6, C-terminal, cleaved
B2: binds [4].
